From patent US20250262336A1, “[177LU] LUTETIUM-PSMA I&T COMPOSITION AND DOSIMETRY, KIT, METHOD OF MAKING, AND METHOD OF USING THEREOF” (Curium US LLC, priority 2023, published 2025)

Test: Cycle 1 normal organ dosimetry (SPECT/CT, TIACs, OLINDA 2.2.3)
Assay type: in vivo, human
Settings: for Absorbed Dose, Mean / Absorbed Dose, max / Absorbed Dose, median / Absorbed Dose, min: Cycle 1, n = 26; for Absorbed Dose in Cycle 1, Mean / Absorbed Dose in Cycle 1, max / Absorbed Dose in Cycle 1, min: N = 16 patients imaged at cycle 1 and 3
Description: This Example presents the biodistribution, dosimetry, and pharmacokinetics (PK) results of a PK/Dosimetry sub-study performed as part of a Phase III trial. Twenty-seven (27) patients were administered a target activity of 7.4±10% GBq of ^177Lu-PSMA-I&T and underwent single photon emission computed tomography (SPECT)/computed tomography (CT) imaging at four timepoints (4 h, 24 h, 48 h, and 168 h). Image data was analysed to compute time-activity curves (TACs) and subsequently time-integrated activity coefficients (TIACs) in each organ of interest and in organs showing appreciable and meaningful ^177Lu-PSMA-I&T activity. Organ Level Internal Dose Assessment (OLINDA 2.2.3) was used to compute organ and whole body absorbed radiation doses for each patient.
All participating sites underwent a rigorous site setup process during which all dose calibrators, scanners, and gamma counters used in the sub-study were calibrated. Sites were allowed to enroll patients in the sub-study only after the completion and approval of all site setup processes by Invicro. Patients underwent SPECT/CT imaging, with anatomical coverage typically extending from the salivary glands to the pelvis, following the administration of a targeted 7.4±10% GBq of ^177Lu-PSMA-I&T at cycle 1. SPECT/CT imaging was performed at four timepoints: 4 h, 24 h, 48 h, and 168 h post-injection. Additionally, a subset of patients imaged at Cycle 1 (16 out of 27), were also imaged at Cycle 3 (Table 2).
In general, raw projection data was acquired into a 128×128 matrix with medium energy general purpose (MEGP) collimation using a step and shoot acquisition mode, acquiring 60 projections per detector (180 degrees rotation per detector), 20 seconds per projection, with an acquisition zoom of 1.0, and a 20% (±10%) energy window centered over 208 keV.
A low-dose CT scan was performed prior to beginning the SPECT scan for attenuation correction. Sites were instructed to use the Institutional standard parameters for acquisition of the low-dose CT. Institutional standard reconstruction parameters were used. Scatter correction was required to be applied using a 20% (±10%) scatter window centered over 170 keV.
The imaging data was analyzed using Invicro's VivoQuant software, a validated software used in a 21 CFR § 11-compliant workflow. The general quantification approach was based on the principles detailed in the Medical Internal Radiation Dose (MIRD) Pamphlet No. 16, No 23, and No 26 as appropriate.
SPECT images were calibrated in units of Becquerel (Bq) using a calibration factor derived from a source of known activity, measured during site set up with the same acquisition and reconstruction parameters employed for patient imaging. A patient-specific calibration factor was also derived at each clinical time point after acquisition of the patient SPECT/CT. As a quality control measure, if the patient-specific calibration factor differed by more than 10% from the site set up calibration factor, an investigation was conducted.
Volume of interest (VOI) (kidneys, bladder, liver, lumbar vertebrae L2-L4, lacrimal glands, salivary glands [parotid and submandibular glands], and whole body) were delineated on each dataset by a trained image analyst. […] Organs were segmented either by drawing the entire contour of the organ, or by placing a sphere in a representative region of the organ and then multiplying by the organ's effective mass (based on patient's height and weight). Segmentation methods for each organ are specified in Table 3 and were consistently applied to each patient.
Clearance of the radiopharmaceutical was derived from a data-appropriate fit of each organ's TAC. Depending on the TAC's shape, the data was fitted with the sum of one, two, or three exponentials, or using a rise and fall model. Fitting was performed with in-house Python software. TIACs were calculated through analytical integration of the curve fit extrapolated to infinity. […]

[1] = Lacrimal Glands (OLINDA sphere model)

For `O=C(O)CC[C@H](NC(=O)N[C@@H](CCCCNC(=O)CCCCCCC(=O)NCCCC[C@@H](NC(=O)[C@@H](Cc1ccccc1)NC(=O)[C@@H](Cc1ccc(O)c(I)c1)NC(=O)CC[C@H](C(=O)O)N1CCN(CC(=O)O)CCN(CC(=O)O)CCN(CC(=O)O)CC1)C(=O)O)C(=O)O)C(=O)O` [^177Lu-PSMA-I&T, (3S,7 S,26R,29R,32R,37R)-29-benzyl-32-(4-hydroxy-3-iodobenzyl)-5,13,20,28,31,34-hexaoxo-37-(4,7,10-tris(carboxymethyl)-1,4,7,10-tetraazacyclododecan-1-yl)-4,6,12,21,27,30,33-heptaazaheptatriacontane-1,3,7,26,37-pentacarboxylic acid; lutetium-177 (III), metal not drawn], the “Absorbed Dose, Mean” value (Adrenals) was 0.02 Gy/GBq, the “Absorbed Dose, max” value (Adrenals) was 0.08 Gy/GBq and the “Absorbed Dose, median” value (Adrenals) was 0.02 Gy/GBq. For the same compound, the “Absorbed Dose, min” value (Adrenals) was 0.01 Gy/GBq, the “Absorbed Dose in Cycle 1, Mean” value (Adrenals) was 0.02 Gy/GBq and the “Absorbed Dose in Cycle 1, max” value (Adrenals) was 0.08 Gy/GBq. The “Absorbed Dose in Cycle 1, min” value (Adrenals) was 0.01 Gy/GBq, the “Absorbed Dose, Mean” value (Brain) was 0.01 Gy/GBq and the “Absorbed Dose, max” value (Brain) was 0.07 Gy/GBq. For the same compound, the “Absorbed Dose, median” value (Brain) was 0.01 Gy/GBq, the “Absorbed Dose, min” value (Brain) was 0.00 Gy/GBq and the “Absorbed Dose in Cycle 1, Mean” value (Brain) was 0.01 Gy/GBq. The “Absorbed Dose in Cycle 1, max” value (Brain) was 0.07 Gy/GBq, the “Absorbed Dose in Cycle 1, min” value (Brain) was 0.00 Gy/GBq and the “Absorbed Dose, Mean” value (Esophagus) was 0.02 Gy/GBq. The “Absorbed Dose, max” value (Esophagus) was 0.07 Gy/GBq, the “Absorbed Dose, median” value (Esophagus) was 0.01 Gy/GBq and the “Absorbed Dose, min” value (Esophagus) was 0.00 Gy/GBq. The “Absorbed Dose in Cycle 1, Mean” value (Esophagus) was 0.01 Gy/GBq, the “Absorbed Dose in Cycle 1, max” value (Esophagus) was 0.07 Gy/GBq and the “Absorbed Dose in Cycle 1, min” value (Esophagus) was 0.00 Gy/GBq. The “Absorbed Dose, Mean” value (Eyes) was 0.01 Gy/GBq, the “Absorbed Dose, max” value (Eyes) was 0.07 Gy/GBq and the “Absorbed Dose, median” value (Eyes) was 0.01 Gy/GBq. For the same compound, the “Absorbed Dose, min” value (Eyes) was 0.00 Gy/GBq, the “Absorbed Dose in Cycle 1, Mean” value (Eyes) was 0.01 Gy/GBq and the “Absorbed Dose in Cycle 1, max” value (Eyes) was 0.07 Gy/GBq. For the same compound, the “Absorbed Dose in Cycle 1, min” value (Eyes) was 0.00 Gy/GBq, the “Absorbed Dose, Mean” value (Gallbladder wall) was 0.02 Gy/GBq and the “Absorbed Dose, max” value (Gallbladder wall) was 0.07 Gy/GBq. For the same compound, the “Absorbed Dose, median” value (Gallbladder wall) was 0.01 Gy/GBq, the “Absorbed Dose, min” value (Gallbladder wall) was 0.00 Gy/GBq and the “Absorbed Dose in Cycle 1, Mean” value (Gallbladder wall) was 0.02 Gy/GBq. For the same compound, the “Absorbed Dose in Cycle 1, max” value (Gallbladder wall) was 0.07 Gy/GBq, the “Absorbed Dose in Cycle 1, min” value (Gallbladder wall) was 0.00 Gy/GBq and the “Absorbed Dose, Mean” value (Heart wall) was 0.02 Gy/GBq. For the same compound, the “Absorbed Dose, max” value (Heart wall) was 0.07 Gy/GBq, the “Absorbed Dose, median” value (Heart wall) was 0.01 Gy/GBq and the “Absorbed Dose, min” value (Heart wall) was 0.00 Gy/GBq. For the same compound, the “Absorbed Dose in Cycle 1, Mean” value (Heart wall) was 0.01 Gy/GBq, the “Absorbed Dose in Cycle 1, max” value (Heart wall) was 0.07 Gy/GBq and the “Absorbed Dose in Cycle 1, min” value (Heart wall) was 0.00 Gy/GBq. For the same compound, the “Absorbed Dose, Mean” value (Kidneys) was 0.41 Gy/GBq, the “Absorbed Dose, max” value (Kidneys) was 0.81 Gy/GBq and the “Absorbed Dose, median” value (Kidneys) was 0.37 Gy/GBq. The “Absorbed Dose, min” value (Kidneys) was 0.17 Gy/GBq, the “Absorbed Dose in Cycle 1, Mean” value (Kidneys) was 0.41 Gy/GBq and the “Absorbed Dose in Cycle 1, max” value (Kidneys) was 0.81 Gy/GBq. The “Absorbed Dose in Cycle 1, min” value (Kidneys) was 0.17 Gy/GBq, the “Absorbed Dose in Cycle 1, Mean” value [1] was 0.39 Gy/GBq and the “Absorbed Dose in Cycle 1, max” value [1] was 1.19 Gy/GBq. The “Absorbed Dose in Cycle 1, min” value [1] was 0.04 Gy/GBq, the “Absorbed Dose, Mean” value (Lacrimal Glands) was 0.40 Gy/GBq and the “Absorbed Dose, max” value (Lacrimal Glands) was 1.19 Gy/GBq. The “Absorbed Dose, median” value (Lacrimal Glands) was 0.26 Gy/GBq, the “Absorbed Dose, min” value (Lacrimal Glands) was 0.04 Gy/GBq and the “Absorbed Dose, Mean” value (Left colon) was 0.47 Gy/GBq. For the same compound, the “Absorbed Dose, max” value (Left colon) was 1.53 Gy/GBq, the “Absorbed Dose, median” value (Left colon) was 0.41 Gy/GBq and the “Absorbed Dose, min” value (Left colon) was 0.01 Gy/GBq. The “Absorbed Dose in Cycle 1, Mean” value (Left colon) was 0.52 Gy/GBq, the “Absorbed Dose in Cycle 1, max” value (Left colon) was 1.53 Gy/GBq and the “Absorbed Dose in Cycle 1, min” value (Left colon) was 0.01 Gy/GBq. The “Absorbed Dose, Mean” value (Liver) was 0.04 Gy/GBq, the “Absorbed Dose, max” value (Liver) was 0.10 Gy/GBq and the “Absorbed Dose, median” value (Liver) was 0.03 Gy/GBq. The “Absorbed Dose, min” value (Liver) was 0.01 Gy/GBq, the “Absorbed Dose in Cycle 1, Mean” value (Liver) was 0.04 Gy/GBq and the “Absorbed Dose in Cycle 1, max” value (Liver) was 0.10 Gy/GBq. For the same compound, the “Absorbed Dose in Cycle 1, min” value (Liver) was 0.01 Gy/GBq, the “Absorbed Dose, Mean” value (Lungs) was 0.01 Gy/GBq and the “Absorbed Dose, max” value (Lungs) was 0.07 Gy/GBq. The “Absorbed Dose, median” value (Lungs) was 0.01 Gy/GBq, the “Absorbed Dose, min” value (Lungs) was 0.00 Gy/GBq and the “Absorbed Dose in Cycle 1, Mean” value (Lungs) was 0.01 Gy/GBq. For the same compound, the “Absorbed Dose in Cycle 1, max” value (Lungs) was 0.07 Gy/GBq, the “Absorbed Dose in Cycle 1, min” value (Lungs) was 0.00 Gy/GBq and the “Absorbed Dose, Mean” value (Osteogenic cells) was 0.05 Gy/GBq. The “Absorbed Dose, max” value (Osteogenic cells) was 0.29 Gy/GBq, the “Absorbed Dose, median” value (Osteogenic cells) was 0.02 Gy/GBq and the “Absorbed Dose, min” value (Osteogenic cells) was 0.00 Gy/GBq. The “Absorbed Dose in Cycle 1, Mean” value (Osteogenic cells) was 0.04 Gy/GBq, the “Absorbed Dose in Cycle 1, max” value (Osteogenic cells) was 0.19 Gy/GBq and the “Absorbed Dose in Cycle 1, min” value (Osteogenic cells) was 0.00 Gy/GBq. The “Absorbed Dose, Mean” value (Pancreas) was 0.02 Gy/GBq, the “Absorbed Dose, max” value (Pancreas) was 0.07 Gy/GBq and the “Absorbed Dose, median” value (Pancreas) was 0.01 Gy/GBq. For the same compound, the “Absorbed Dose, min” value (Pancreas) was 0.00 Gy/GBq, the “Absorbed Dose in Cycle 1, Mean” value (Pancreas) was 0.02 Gy/GBq and the “Absorbed Dose in Cycle 1, max” value (Pancreas) was 0.07 Gy/GBq. The “Absorbed Dose in Cycle 1, min” value (Pancreas) was 0.00 Gy/GBq, the “Absorbed Dose, Mean” value (Prostate) was 0.02 Gy/GBq and the “Absorbed Dose, max” value (Prostate) was 0.07 Gy/GBq. For the same compound, the “Absorbed Dose, median” value (Prostate) was 0.01 Gy/GBq and the “Absorbed Dose, min” value (Prostate) was 0.01 Gy/GBq.
